Source: patent US10202361B2, “Pyridazinones as herbicides” (E I DU PONT DE NEMOURS AND COMPANY, priority 2014, dated 2019)
Where two headings read alike, the source gives them in different places.

Key:
Format in all cases: in vivo
[1] = tested on: barnyardgrass (Echinochloa crus-galli); assay: Test B flooded paddy test; conditions: Echinochloa crus-galli, 312 h; Flood, 125 g ai/ha; scale of 0 to 100, 0 is no effect, 100 is complete control; 13 to 15 d; read-out: Plant response rating, Barnyardgrass
Method in brief: (§1)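 Plants at the 2-leaf stage were flooded to 3 cm and treated by applying compound directly to the paddy water, with depth held constant throughout. After 13–15 d in a greenhouse, injury was rated visually against controls on a 0 (no effect) to 100 (complete control) scale.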

[2] = tested on: ducksalad (Heteranthera limosa); assay: Test B flooded paddy test; conditions: Heteranthera limosa, 312 h; Flood, 125 g ai/ha; scale of 0 to 100, 0 is no effect, 100 is complete control; 13 to 15 d; read-out: Plant response rating, Ducksalad
Method in brief: as §1

corn (Zea mays) = assay: Test C pre-/postemergence greenhouse herbicide test; conditions: Zea mays, Corn, read-out: Plant response rating; for plant injury at 31 g/ha: 31 g ai/ha; for plant injury at 62 g/ha: 62 g ai/ha; for plant injury at 125 g/ha: 125 g ai/ha; for plant injury at 250 g/ha: 250 g ai/ha
Method in brief: (§2)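 Seeds sown in loam soil–sand blend were treated preemergence; plants at 2 to 18 cm (1- to 4-leaf stage) in peat-based medium were treated postemergence. Test chemicals were formulated in a non-phytotoxic solvent mixture with surfactant. After 13 to 15 d in greenhouse, injury was rated visually versus controls, 0 (no effect) to 100 (complete control).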

[3] = tested on: foxtail, giant (giant foxtail, Setaria faberii); assay: as above; conditions: Setaria faberi, Foxtail, Giant, read-out: Plant response rating; for pest or weed control at 31 g/ha: 31 g ai/ha; for pest or weed control at 62 g/ha: 62 g ai/ha; for pest or weed control at 125 g/ha: 125 g ai/ha; for pest or weed control at 250 g/ha: 250 g ai/ha
Method in brief: as §2

[4] = tested on: johnsongrass (Sorghum halepense); assay: as above; conditions: Sorghum halepense, Johnsongrass, read-out: Plant response rating; for pest or weed control at 31 g/ha: 31 g ai/ha; for pest or weed control at 62 g/ha: 62 g ai/ha; for pest or weed control at 125 g/ha: 125 g ai/ha; for pest or weed control at 250 g/ha: 250 g ai/ha
Method in brief: as §2

[5] = tested on: lambsquarters (Chenopodium album); assay: as above
Method in brief: as §2

[6] = tested on: nutsedge, yellow (yellow nutsedge, Cyperus esculentus); assay: as above; conditions: Cyperus, Nutsedge, Yellow, read-out: Plant response rating; for pest or weed control at 31 g/ha: 31 g ai/ha; for pest or weed control at 62 g/ha: 62 g ai/ha; for pest or weed control at 125 g/ha: 125 g ai/ha; for pest or weed control at 250 g/ha: 250 g ai/ha
Method in brief: as §2

[7] = tested on: oilseed rape (Brassica napus); assay: as above; conditions: Oilseed Rape
Method in brief: as §2

[8] = tested on: pigweed (Amaranthus retroflexus); assay: as above; conditions: Amaranthus retroflexus, Pigweed, read-out: Plant response rating; for pest or weed control at 62 g/ha: 62 g ai/ha; for pest or weed control at 125 g/ha: 125 g ai/ha; for pest or weed control at 250 g/ha: 250 g ai/ha
Method in brief: as §2

soybean (Glycine max) = assay: as above; conditions: Glycine max, Soybean, read-out: Plant response rating; for plant injury at 62 g/ha: 62 g ai/ha; for plant injury at 125 g/ha: 125 g ai/ha; for plant injury at 250 g/ha: 250 g ai/ha
Method in brief: as §2

[9] = tested on: velvetleaf (Abutilon theophrasti); assay: as above; conditions: Abutilon theophrasti, Velvetleaf, read-out: Plant response rating; for pest or weed control at 62 g/ha: 62 g ai/ha; for pest or weed control at 125 g/ha: 125 g ai/ha; for pest or weed control at 250 g/ha: 250 g ai/ha
Method in brief: as §2

[10] = post-emergence, Postemergence, 31 g ai/ha

COc1cc(=O)n(-c2ccc(F)cc2)nc1Cc1ccnc(C(F)(F)F)c1 [Compound 17, 2-(4-fluorophenyl)-5-methoxy-6-[[2-(trifluoromethyl)-4-pyridinyl]methyl]-3 (2H)-pyridazinone]
pest or weed control at 125 g/ha [1]: 90%
pest or weed control at 125 g/ha [2]: 90%
plant injury at 31 g/ha (corn (Zea mays); post-emergence, Postemergence): 10%
plant injury at 62 g/ha (corn (Zea mays); post-emergence, Postemergence): 15%
plant injury at 125 g/ha (corn (Zea mays); post-emergence, Postemergence): 15%
plant injury at 250 g/ha (corn (Zea mays); post-emergence, Postemergence): 15%
plant injury at 31 g/ha (corn (Zea mays); pre-emergence, Preemergence): 45%
plant injury at 62 g/ha (corn (Zea mays); pre-emergence, Preemergence): 65%
plant injury at 125 g/ha (corn (Zea mays); pre-emergence, Preemergence): 85%
plant injury at 250 g/ha (corn (Zea mays); pre-emergence, Preemergence): 100%
pest or weed control at 31 g/ha ([3]; post-emergence, Postemergence): 10%
pest or weed control at 62 g/ha ([3]; post-emergence, Postemergence): 10%
pest or weed control at 125 g/ha ([3]; post-emergence, Postemergence): 20%
pest or weed control at 250 g/ha ([3]; post-emergence, Postemergence): 45%
pest or weed control at 31 g/ha ([3]; pre-emergence, Preemergence): 100%
pest or weed control at 62 g/ha ([3]; pre-emergence, Preemergence): 100%
pest or weed control at 125 g/ha ([3]; pre-emergence, Preemergence): 100%
pest or weed control at 250 g/ha ([3]; pre-emergence, Preemergence): 100%
pest or weed control at 31 g/ha ([4]; post-emergence, Postemergence): 5%
pest or weed control at 62 g/ha ([4]; post-emergence, Postemergence): 5%
pest or weed control at 125 g/ha ([4]; post-emergence, Postemergence): 5%
pest or weed control at 250 g/ha ([4]; post-emergence, Postemergence): 65%
pest or weed control at 31 g/ha ([4]; pre-emergence, Preemergence): 70%
pest or weed control at 62 g/ha ([4]; pre-emergence, Preemergence): 95%
pest or weed control at 125 g/ha ([4]; pre-emergence, Preemergence): 98%
pest or weed control at 250 g/ha ([4]; pre-emergence, Preemergence): 100%
Plant response rating ([5]; Postemergence, 31 g ai/ha): 75
Plant response rating ([5]; Postemergence, 62 g ai/ha): 75
Plant response rating ([5]; Postemergence, 125 g ai/ha): 90
Plant response rating ([5]; Postemergence, 250 g ai/ha): 90
Plant response rating ([5]; Preemergence, 31 g ai/ha): 95
Plant response rating ([5]; Preemergence, 62 g ai/ha): 95
Plant response rating ([5]; Preemergence, 125 g ai/ha): 95
Plant response rating ([5]; Preemergence, 250 g ai/ha): 98
pest or weed control at 31 g/ha ([6]; post-emergence, Postemergence): 5%
pest or weed control at 62 g/ha ([6]; post-emergence, Postemergence): 5%
pest or weed control at 125 g/ha ([6]; post-emergence, Postemergence): 10%
pest or weed control at 250 g/ha ([6]; post-emergence, Postemergence): 10%
pest or weed control at 31 g/ha ([6]; pre-emergence, Preemergence): 20%
pest or weed control at 62 g/ha ([6]; pre-emergence, Preemergence): 30%
pest or weed control at 125 g/ha ([6]; pre-emergence, Preemergence): 55%
pest or weed control at 250 g/ha ([6]; pre-emergence, Preemergence): 75%
Plant response rating ([7]; Postemergence, 31 g ai/ha): 5
Plant response rating ([7]; Postemergence, 62 g ai/ha): 20
Plant response rating ([7]; Postemergence, 125 g ai/ha): 25
Plant response rating ([7]; Preemergence, 31 g ai/ha): 50
Plant response rating ([7]; Preemergence, 62 g ai/ha): 100
Plant response rating ([7]; Preemergence, 125 g ai/ha): 100
Plant response rating ([7]; Preemergence, 250 g ai/ha): 100
pest or weed control at 62 g/ha ([8]; post-emergence, Postemergence): 60%
pest or weed control at 125 g/ha ([8]; post-emergence, Postemergence): 60%
pest or weed control at 250 g/ha ([8]; post-emergence, Postemergence): 70%
pest or weed control at 31 g/ha ([8]; pre-emergence, Preemergence, 31 g ai/ha): 100%
pest or weed control at 62 g/ha ([8]; pre-emergence, Preemergence): 100%
pest or weed control at 125 g/ha ([8]; pre-emergence, Preemergence): 100%
pest or weed control at 250 g/ha ([8]; pre-emergence, Preemergence): 100%
plant injury at 31 g/ha (soybean (Glycine max); [10]): 80%
plant injury at 62 g/ha (soybean (Glycine max); post-emergence, Postemergence): 90%
plant injury at 125 g/ha (soybean (Glycine max); post-emergence, Postemergence): 90%
plant injury at 250 g/ha (soybean (Glycine max); post-emergence, Postemergence): 90%
plant injury at 62 g/ha (soybean (Glycine max); pre-emergence, Preemergence): 55%
plant injury at 125 g/ha (soybean (Glycine max); pre-emergence, Preemergence): 95%
plant injury at 250 g/ha (soybean (Glycine max); pre-emergence, Preemergence): 98%
pest or weed control at 31 g/ha [9, 10]: 20%
pest or weed control at 62 g/ha ([9]; post-emergence, Postemergence): 20%
pest or weed control at 125 g/ha ([9]; post-emergence, Postemergence): 30%
pest or weed control at 250 g/ha ([9]; post-emergence, Postemergence): 45%
pest or weed control at 62 g/ha ([9]; pre-emergence, Preemergence): 75%
pest or weed control at 125 g/ha ([9]; pre-emergence, Preemergence): 100%
pest or weed control at 250 g/ha ([9]; pre-emergence, Preemergence): 100%
